The record followed here is the NIST ThermoML archive (doi:10.1021/je0602925).

The series can be described thus: activity coefficient (dimensionless); of the first substance listed, at infinite dilution; xn = mol fraction of the nth substance listed. The conditions noted are these: Liquid, Chromatography, x1 = 0.

Structures are written as SMILES. ± gives the expanded uncertainty stated by the source.

For `C=CCCCC` [hex-1-ene] + CCCCCCCCCCCCCC[P+](CCCCCC)(CCCCCC)CCCCCC.F[B-](F)(F)F, the activity coefficient turned out to be 0.57 ± 0.041 (308.15 K), 0.558 ± 0.04 (318.15 K) and 0.551 ± 0.04 (328.15 K).

In the case of `C#CCCCCC` [1-heptyne] + CCCCCCCCCCCCCC[P+](CCCCCC)(CCCCCC)CCCCCC.O=S(=O)([N-]S(=O)(=O)C(F)(F)F)C(F)(F)F, the activity coefficient is, setting by setting: (308.15 K) 0.485 ± 0.037; (318.15 K) 0.496 ± 0.038; (328.15 K) 0.502 ± 0.038.

Take `C#CCCCCCC` [1-octyne] + CCCCCCCCCCCCCC[P+](CCCCCC)(CCCCCC)CCCCCC.[Cl-]: the activity coefficient came out at 0.494 ± 0.038 (308.15 K), 0.514 ± 0.038 (318.15 K) and 0.526 ± 0.039 (328.15 K).

In the case of `C=CCCCCC` [1-heptene] + CCCCCCCCCCCCCC[P+](CCCCCC)(CCCCCC)CCCCCC.F[B-](F)(F)F, the activity coefficient (308.15 K) was found to be 0.663 ± 0.045, the activity coefficient (318.15 K) came out at 0.647 ± 0.044 and the activity coefficient (328.15 K) was 0.637 ± 0.044.

For `CCO` [ethanol] + CCCCCCCCCCCCCC[P+](CCCCCC)(CCCCCC)CCCCCC.[Cl-], the activity coefficient stood at 0.74 ± 0.049 (308.15 K), 0.737 ± 0.049 (318.15 K) and 0.735 ± 0.049 (328.15 K).

Turning to `C=CCCCCCC` [oct-1-ene] + CCCCCCCCCCCCCC[P+](CCCCCC)(CCCCCC)CCCCCC.F[B-](F)(F)F, the activity coefficient runs as follows: (308.15 K) 0.769 ± 0.05; (318.15 K) 0.748 ± 0.049; (328.15 K) 0.734 ± 0.049.

Take `C1CCCCCC1` [cycloheptane] + CCCCCCCCCCCCCC[P+](CCCCCC)(CCCCCC)CCCCCC.[Cl-]: the activity coefficient came out at 0.861 ± 0.055 (308.15 K), 0.753 ± 0.05 (318.15 K) and 0.763 ± 0.05 (328.15 K).

With `C1CCCC1` [cyclopentane] + CCCCCCCCCCCCCC[P+](CCCCCC)(CCCCCC)CCCCCC.O=S(=O)([N-]S(=O)(=O)C(F)(F)F)C(F)(F)F, the activity coefficient (308.15 K) amounted to 0.562 ± 0.04, the activity coefficient (318.15 K) was determined as 0.559 ± 0.04 and the activity coefficient (328.15 K) was determined as 0.558 ± 0.04.

`C=CCCCCCC` [oct-1-ene] + CCCCCCCCCCCCCC[P+](CCCCCC)(CCCCCC)CCCCCC.[Cl-]: the activity coefficient reads like this: (308.15 K) 0.567 ± 0.041; (318.15 K) 0.557 ± 0.04; (328.15 K) 0.552 ± 0.04.

Turning to `CCCCCCC` [heptane] + CCCCCCCCCCCCCC[P+](CCCCCC)(CCCCCC)CCCCCC.O=S(=O)([N-]S(=O)(=O)C(F)(F)F)C(F)(F)F, the activity coefficient runs as follows: (308.15 K) 0.783 ± 0.051; (318.15 K) 0.769 ± 0.05; (328.15 K) 0.761 ± 0.05.

Regarding `c1ccccc1` [benzene] + CCCCCCCCCCCCCC[P+](CCCCCC)(CCCCCC)CCCCCC.O=S(=O)([N-]S(=O)(=O)C(F)(F)F)C(F)(F)F, the activity coefficient reads like this: (308.15 K) 0.406 ± 0.034; (318.15 K) 0.403 ± 0.034; (328.15 K) 0.402 ± 0.034.

Regarding `C1CCCCCC1` [cycloheptane] + CCCCCCCCCCCCCC[P+](CCCCCC)(CCCCCC)CCCCCC.O=S(=O)([N-]S(=O)(=O)C(F)(F)F)C(F)(F)F, the activity coefficient came out at 0.787 ± 0.051 (308.15 K), 0.779 ± 0.051 (318.15 K) and 0.774 ± 0.051 (328.15 K).

Turning to `CCCCCC` [hexane] + CCCCCCCCCCCCCC[P+](CCCCCC)(CCCCCC)CCCCCC.F[B-](F)(F)F, the activity coefficient is 0.968 ± 0.061 (308.15 K), 0.942 ± 0.059 (318.15 K) and 0.925 ± 0.058 (328.15 K).

As to `CCCCCCC` [heptane] + CCCCCCCCCCCCCC[P+](CCCCCC)(CCCCCC)CCCCCC.F[B-](F)(F)F, the activity coefficient by setting is: (308.15 K) 1 ± 0.063; (318.15 K) 0.97 ± 0.061; (328.15 K) 0.952 ± 0.06.

For the molecule `CO` [methanol] + CCCCCCCCCCCCCC[P+](CCCCCC)(CCCCCC)CCCCCC.[Cl-], the activity coefficient runs as follows: (308.15 K) 0.887 ± 0.056; (318.15 K) 0.879 ± 0.056; (328.15 K) 0.873 ± 0.056.

For `CCCCCCCC` [octane] + CCCCCCCCCCCCCC[P+](CCCCCC)(CCCCCC)CCCCCC.O=S(=O)([N-]S(=O)(=O)C(F)(F)F)C(F)(F)F, the activity coefficient (308.15 K) worked out at 0.843 ± 0.054, the activity coefficient (318.15 K) stood at 0.825 ± 0.053 and the activity coefficient (328.15 K) stood at 0.814 ± 0.053.

For the molecule `C=CCCCCC` [1-heptene] + CCCCCCCCCCCCCC[P+](CCCCCC)(CCCCCC)CCCCCC.O=S(=O)([N-]S(=O)(=O)C(F)(F)F)C(F)(F)F, the activity coefficient reads like this: (308.15 K) 0.558 ± 0.04; (318.15 K) 0.549 ± 0.04; (328.15 K) 0.543 ± 0.04.

Regarding `CCCCC` [pentane] + CCCCCCCCCCCCCC[P+](CCCCCC)(CCCCCC)CCCCCC.[Cl-], the activity coefficient by setting is: (308.15 K) 0.607 ± 0.042; (318.15 K) 0.599 ± 0.042; (328.15 K) 0.594 ± 0.042.

Turning to `C1CCCCC1` [cyclohexane] + CCCCCCCCCCCCCC[P+](CCCCCC)(CCCCCC)CCCCCC.F[B-](F)(F)F, the activity coefficient runs as follows: (308.15 K) 0.73 ± 0.048; (318.15 K) 0.719 ± 0.048; (328.15 K) 0.712 ± 0.047.

In the case of `CCO` [ethanol] + CCCCCCCCCCCCCC[P+](CCCCCC)(CCCCCC)CCCCCC.F[B-](F)(F)F, the activity coefficient reads like this: (308.15 K) 5.59 ± 0.38; (318.15 K) 5.36 ± 0.36; (328.15 K) 5.14 ± 0.35.

For `C#CCCCC` [1-hexyne] + CCCCCCCCCCCCCC[P+](CCCCCC)(CCCCCC)CCCCCC.O=S(=O)([N-]S(=O)(=O)C(F)(F)F)C(F)(F)F, the activity coefficient was determined as 0.454 ± 0.036 (308.15 K), 0.463 ± 0.036 (318.15 K) and 0.468 ± 0.037 (328.15 K).

Regarding `C#CCCCCC` [1-heptyne] + CCCCCCCCCCCCCC[P+](CCCCCC)(CCCCCC)CCCCCC.[Cl-], the activity coefficient reads like this: (308.15 K) 0.479 ± 0.037; (318.15 K) 0.494 ± 0.038; (328.15 K) 0.504 ± 0.038.

`CCCCC` [pentane] + CCCCCCCCCCCCCC[P+](CCCCCC)(CCCCCC)CCCCCC.F[B-](F)(F)F: the activity coefficient worked out at 0.722 ± 0.048 (308.15 K), 0.706 ± 0.047 (318.15 K) and 0.695 ± 0.047 (328.15 K).

With `CCCCCCCC` [octane] + CCCCCCCCCCCCCC[P+](CCCCCC)(CCCCCC)CCCCCC.F[B-](F)(F)F, the activity coefficient by setting is: (308.15 K) 1.15 ± 0.073; (318.15 K) 1.11 ± 0.071; (328.15 K) 1.09 ± 0.069.

Consider `c1ccccc1` [benzene] + CCCCCCCCCCCCCC[P+](CCCCCC)(CCCCCC)CCCCCC.[Cl-], for which the activity coefficient (308.15 K) was found to be 0.408 ± 0.034, the activity coefficient (318.15 K) came to 0.403 ± 0.034 and the activity coefficient (328.15 K) came out at 0.4 ± 0.034.

As to `C1CCCCCC1` [cycloheptane] + CCCCCCCCCCCCCC[P+](CCCCCC)(CCCCCC)CCCCCC.F[B-](F)(F)F, the activity coefficient runs as follows: (308.15 K) 1 ± 0.063; (318.15 K) 0.979 ± 0.061; (328.15 K) 0.965 ± 0.061.

Regarding `C=CCCCCC` [1-heptene] + CCCCCCCCCCCCCC[P+](CCCCCC)(CCCCCC)CCCCCC.[Cl-], the activity coefficient is, setting by setting: (308.15 K) 0.523 ± 0.039; (318.15 K) 0.515 ± 0.038; (328.15 K) 0.511 ± 0.038.

On to `CO` [methanol] + CCCCCCCCCCCCCC[P+](CCCCCC)(CCCCCC)CCCCCC.O=S(=O)([N-]S(=O)(=O)C(F)(F)F)C(F)(F)F, for which the activity coefficient by setting is: (308.15 K) 0.942 ± 0.059; (318.15 K) 0.958 ± 0.06; (328.15 K) 0.989 ± 0.062.

Regarding `c1ccccc1` [benzene] + CCCCCCCCCCCCCC[P+](CCCCCC)(CCCCCC)CCCCCC.F[B-](F)(F)F, the activity coefficient by setting is: (308.15 K) 0.37 ± 0.033; (318.15 K) 0.367 ± 0.033; (328.15 K) 0.366 ± 0.033.

As to `CCCCC` [pentane] + CCCCCCCCCCCCCC[P+](CCCCCC)(CCCCCC)CCCCCC.O=S(=O)([N-]S(=O)(=O)C(F)(F)F)C(F)(F)F, the activity coefficient stood at 0.611 ± 0.043 (308.15 K), 0.602 ± 0.042 (318.15 K) and 0.597 ± 0.042 (328.15 K).

Take `C=CCCCC` [hex-1-ene] + CCCCCCCCCCCCCC[P+](CCCCCC)(CCCCCC)CCCCCC.O=S(=O)([N-]S(=O)(=O)C(F)(F)F)C(F)(F)F: the activity coefficient (308.15 K) was determined as 0.501 ± 0.038, the activity coefficient (318.15 K) was determined as 0.494 ± 0.038 and the activity coefficient (328.15 K) was found to be 0.49 ± 0.037.

Regarding `C#CCCCC` [1-hexyne] + CCCCCCCCCCCCCC[P+](CCCCCC)(CCCCCC)CCCCCC.[Cl-], the activity coefficient is 0.449 ± 0.036 (308.15 K), 0.461 ± 0.036 (318.15 K) and 0.468 ± 0.037 (328.15 K).

For `CCCCCCCC` [octane] + CCCCCCCCCCCCCC[P+](CCCCCC)(CCCCCC)CCCCCC.[Cl-], the activity coefficient reads like this: (308.15 K) 0.847 ± 0.054; (318.15 K) 0.831 ± 0.054; (328.15 K) 0.821 ± 0.053.

For the molecule `CCO` [ethanol] + CCCCCCCCCCCCCC[P+](CCCCCC)(CCCCCC)CCCCCC.O=S(=O)([N-]S(=O)(=O)C(F)(F)F)C(F)(F)F, the activity coefficient (308.15 K) turned out to be 0.884 ± 0.056, the activity coefficient (318.15 K) came to 0.894 ± 0.057 and the activity coefficient (328.15 K) came to 0.902 ± 0.057.

For `C=CCCCC` [hex-1-ene] + CCCCCCCCCCCCCC[P+](CCCCCC)(CCCCCC)CCCCCC.[Cl-], the activity coefficient (308.15 K) is 0.477 ± 0.037, the activity coefficient (318.15 K) turned out to be 0.471 ± 0.037 and the activity coefficient (328.15 K) was 0.468 ± 0.037.

With `C#CCCCCCC` [1-octyne] + CCCCCCCCCCCCCC[P+](CCCCCC)(CCCCCC)CCCCCC.F[B-](F)(F)F, the activity coefficient is 0.387 ± 0.034 (308.15 K), 0.406 ± 0.034 (318.15 K) and 0.417 ± 0.035 (328.15 K).

`C1CCCC1` [cyclopentane] + CCCCCCCCCCCCCC[P+](CCCCCC)(CCCCCC)CCCCCC.F[B-](F)(F)F: the activity coefficient was 0.638 ± 0.044 (308.15 K), 0.63 ± 0.044 (318.15 K) and 0.625 ± 0.043 (328.15 K).

For the molecule `C1CCCCC1` [cyclohexane] + CCCCCCCCCCCCCC[P+](CCCCCC)(CCCCCC)CCCCCC.[Cl-], the activity coefficient came out at 0.631 ± 0.044 (308.15 K), 0.627 ± 0.043 (318.15 K) and 0.625 ± 0.043 (328.15 K).

`C#CCCCC` [1-hexyne] + CCCCCCCCCCCCCC[P+](CCCCCC)(CCCCCC)CCCCCC.F[B-](F)(F)F: the activity coefficient reads like this: (308.15 K) 0.345 ± 0.032; (318.15 K) 0.358 ± 0.033; (328.15 K) 0.366 ± 0.033.

For the molecule `CCCCCCC` [heptane] + CCCCCCCCCCCCCC[P+](CCCCCC)(CCCCCC)CCCCCC.[Cl-], the activity coefficient was found to be 0.816 ± 0.053 (308.15 K), 0.803 ± 0.052 (318.15 K) and 0.795 ± 0.052 (328.15 K).
